Structures can show the parent of a compound that is named as a salt.
What was measured:
[1] = biological target: T1, SYK (Homo sapiens, UniProt P43405); test: SYK flash plate assay (enzyme assay); format: biochemical
T1 construct: 2.5 nM SYK, 400 nM Biotin-Aha-Aha-KEDPDYEWPSAKK
Procedure, shortened: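 Radiometric Flashplate format: biotinylated peptide substrate (400 nM) and 33P-labelled ATP (10 μM) react with 2.5 nM enzyme for 1 hour at 30 °C in Hepes buffer, pH 7.5. After EDTA quench and washing, counts are taken; staurosporine defines non-specific signal, and IC50 values are derived.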

[2] = biological target: GCN2 (Homo sapiens, UniProt Q9P2K8); test: GCN2 enzyme assay; format: biochemical
Sequence of GCN2 (Q9P2K8 whole entry): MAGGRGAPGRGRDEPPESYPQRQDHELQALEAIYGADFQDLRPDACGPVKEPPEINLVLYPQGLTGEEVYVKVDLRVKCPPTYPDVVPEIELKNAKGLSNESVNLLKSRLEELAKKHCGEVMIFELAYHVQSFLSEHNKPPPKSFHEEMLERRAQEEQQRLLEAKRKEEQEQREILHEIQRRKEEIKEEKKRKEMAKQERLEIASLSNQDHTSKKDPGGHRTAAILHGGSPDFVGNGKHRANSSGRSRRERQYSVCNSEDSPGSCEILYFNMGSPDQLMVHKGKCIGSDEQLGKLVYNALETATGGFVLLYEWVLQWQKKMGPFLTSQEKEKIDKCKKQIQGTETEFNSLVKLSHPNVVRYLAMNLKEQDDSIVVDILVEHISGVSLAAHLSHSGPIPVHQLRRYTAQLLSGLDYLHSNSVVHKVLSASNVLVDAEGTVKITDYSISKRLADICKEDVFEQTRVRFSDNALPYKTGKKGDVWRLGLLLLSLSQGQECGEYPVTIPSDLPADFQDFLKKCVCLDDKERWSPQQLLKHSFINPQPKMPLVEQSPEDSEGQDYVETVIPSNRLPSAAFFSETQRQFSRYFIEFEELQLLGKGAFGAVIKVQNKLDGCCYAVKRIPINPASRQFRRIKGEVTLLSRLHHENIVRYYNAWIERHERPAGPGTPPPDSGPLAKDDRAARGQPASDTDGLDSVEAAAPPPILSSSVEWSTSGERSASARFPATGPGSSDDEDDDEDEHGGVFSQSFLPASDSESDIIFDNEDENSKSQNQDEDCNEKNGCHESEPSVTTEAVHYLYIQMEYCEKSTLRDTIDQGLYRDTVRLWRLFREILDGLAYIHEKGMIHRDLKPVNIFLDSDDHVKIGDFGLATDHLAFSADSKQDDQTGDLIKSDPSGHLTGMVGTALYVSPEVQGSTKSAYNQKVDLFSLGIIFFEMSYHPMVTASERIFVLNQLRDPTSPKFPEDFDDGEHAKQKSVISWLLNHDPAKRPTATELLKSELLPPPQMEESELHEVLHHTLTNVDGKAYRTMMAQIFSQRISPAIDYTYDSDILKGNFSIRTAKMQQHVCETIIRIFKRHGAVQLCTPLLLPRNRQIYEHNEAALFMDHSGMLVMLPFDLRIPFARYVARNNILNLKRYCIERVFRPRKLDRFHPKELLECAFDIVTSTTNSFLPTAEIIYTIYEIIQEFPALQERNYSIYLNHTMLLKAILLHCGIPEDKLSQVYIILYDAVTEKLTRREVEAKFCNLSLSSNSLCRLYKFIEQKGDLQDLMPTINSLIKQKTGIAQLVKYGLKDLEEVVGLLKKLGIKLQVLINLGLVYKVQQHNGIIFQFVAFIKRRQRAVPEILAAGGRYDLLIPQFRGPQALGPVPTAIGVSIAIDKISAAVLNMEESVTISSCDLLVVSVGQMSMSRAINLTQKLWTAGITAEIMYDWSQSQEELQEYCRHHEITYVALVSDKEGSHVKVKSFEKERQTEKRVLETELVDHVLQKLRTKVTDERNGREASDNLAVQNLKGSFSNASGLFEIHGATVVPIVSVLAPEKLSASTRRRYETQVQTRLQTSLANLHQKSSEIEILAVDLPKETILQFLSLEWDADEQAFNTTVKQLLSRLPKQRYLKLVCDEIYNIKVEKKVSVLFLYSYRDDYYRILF

SMILES	IC50 [1] [µM]	IC50 [2] [µM]
Cn1cc(-c2nccn3nc(Nc4cnn(C5CCNCC5)c4)nc23)cn1 [C28, [8-(1-Methyl-1H-pyrazol-4-yl)-[1,2,4]triazolo[1,5-a]pyrazin-2-yl]-(1-piperidin-4-yl-1H-pyrazol-4-yl)-amine hydrochloride]	3 to 50	0.3 to 3
Cn1nnc2ccc(Nc3nc4c(-c5ccccc5-c5ccccc5)nccn4n3)cc21 [C29]	0.1 to 0.3	3 to 50
Cn1cc(-c2nccn3nc(Nc4ccc5nnn(C)c5c4)nc23)cn1 [C30, (3-Methyl-3H-benzotriazol-5-yl)-[8-(1-methyl-1H-pyrazol-4-yl)-[1,2,4]triazolo[1,5-a]pyrazin-2-yl]-amine]	0.3 to 3	0.3 to 3
Cn1cc(-c2nccn3nc(Nc4ccc([S+](C)[O-])cc4)nc23)cn1 (centres unmarked) [C32, (4-Methanesulfinyl-phenyl)-[8-(1-methyl-1H-pyrazol-4-yl)-[1,2,4]triazolo[1,5-a]pyrazin-2-yl]-amine]	0.3 to 3	3 to 50
CN(C)Cc1nc2ccc(Nc3nc4c(-c5cnn(C)c5)nccn4n3)cc2[nH]1 [C33, (2-Dimethylaminomethyl-3H-benzoimidazol-5-yl)-[8-(1-methyl-1H-pyrazol-4-yl)-[1,2,4]triazolo[1,5-a]pyrazin-2-yl]-amine]	0.1 to 0.3	0.3 to 3
Cn1cc(-c2nccn3nc(Nc4ccc5c(c4)NC(=O)C5(C)C)nc23)cn1 [C34, 3,3-Dimethyl-6-[8-(1-methyl-1H-pyrazol-4-yl)-[1,2,4]triazolo[1,5-a]pyrazin-2-ylamino]-1,3-dihydro-indol-2-one]	< 0.1	3 to 50
Cn1cc(-c2nccn3nc(Nc4ccc(C#N)c(O)c4)nc23)cn1 [C36, 2-Hydroxy-4-[8-(1-methyl-1H-pyrazol-4-yl)-[1,2,4]triazolo[1,5-a]pyrazin-2-ylamino]-benzonitrile]	0.3 to 3	0.3 to 3
CS(=O)(=O)c1ccc(-c2nccn3nc(Nc4ccc(N5CCOCC5)cc4)nc23)cc1 [C38, 8-(4-methylsulfonylphenyl)-N-(4-morpholinophenyl)-[1,2,4]triazolo[1,5-a]pyrazin-2-amine]	0.1 to 0.3	0.3 to 3
O=C(c1ccc(-c2nccn3nc(Nc4ccc(N5CCOCC5)cc4)nc23)cc1)N1CCOCC1 [C41, morpholin-4-yl-{4-[2-(4-morpholin-4-yl-phenylamino)-[1,2,4]triazolo[1,5-a]pyrazin-8-yl]-phenyl}-methanone]	3 to 50	3 to 50
COc1cc(Nc2nc3c(N4CCNC(=O)C4)nccn3n2)cc(OC)c1 [C43, 4-[2-(3,5-dimethoxy-phenylamino)-[1,2,4]triazolo[1,5-a]pyrazin-8-yl]-piperazin-2-one]	0.3 to 3	3 to 50
COc1cc(Nc2nc3c(N4CCCC(C(=O)NCCO)C4)nccn3n2)cc(OC)c1 (centres unmarked) [C45, 1-[2-(3,5-dimethoxy-phenylamino)-[1,2,4]triazolo[1,5-a]pyrazin-8-yl]-piperidine-3-carboxylic acid (2-hydroxy-ethyl)-amide]	3 to 50	3 to 50
Cc1nc2cc(Nc3nc4c(-c5ccc(C(=O)N6CCOCC6)cc5)nccn4n3)ccc2[nH]1 [C48, {4-[2-(2-methyl-1H-benzoimidazol-5-ylamino)-[1,2,4]triazolo[1,5-a]pyrazin-8-yl]-phenyl}-morpholin-4-yl-methanone]	3 to 50	0.3 to 3
COc1cc(Nc2nc3c(N4CCC(O)(CCO)CC4)nccn3n2)cc(OC)c1 [C49, 1-[2-(3,5-dimethoxy-phenylamino)-[1,2,4]triazolo[1,5-a]pyrazin-8-yl]-4-(2-hydroxy-ethyl)-piperidin-4-ol]	0.3 to 3	3 to 50
COc1cc(Nc2nc3c(N4CCC(N)CC4)nccn3n2)cc(OC)c1 [C50, [8-(4-amino-piperidin-1-yl)-[1,2,4]triazolo[1,5-a]pyrazin-2-yl]-(3,5-dimethoxy-phenyl)-amine]	0.3 to 3	3 to 50
COc1cc(Nc2nc3c(N4CCN(C(C)=O)CC4)nccn3n2)cc(OC)c1 [C51, 1-{4-[2-(3,5-dimethoxy-phenylamino)-[1,2,4]triazolo[1,5-a]pyrazin-8-yl]-piperazin-1-yl}-ethanone]	3 to 50	3 to 50
COc1cc(Nc2nc3c(N4CCN(C)CC4c4ccccc4)nccn3n2)cc(OC)c1 (centres unmarked) [C55, (3,5-dimethoxy-phenyl)-[8-(4-methyl-2-phenyl-piperazin-1-yl)-[1,2,4]triazolo[1,5-a]pyrazin-2-yl]-amine]	0.3 to 3	3 to 50
COc1cc(Nc2nc3c(N4CCN(C(=O)CO)CC4)nccn3n2)cc(OC)c1 [C56, 1-{4-[2-(3,5-dimethoxy-phenylamino)-[1,2,4]triazolo[1,5-a]pyrazin-8-yl]-piperazin-1-yl}-2-hydroxy-ethanone]	0.3 to 3	3 to 50

SMILES	IC50 [1] [µM]	IC50 [2] [µM]
Cc1nc2cc(Nc3nc4c(-c5ccc(CN6CCOCC6)cc5)nccn4n3)ccc2[nH]1 [C57, (2-methyl-1H-benzoimidazol-5-yl)-[8-(4-morpholin-4-ylmethyl-phenyl)-[1,2,4]triazolo[1,5-a]pyrazin-2-yl]-amine]	3 to 50	0.3 to 3
Cc1nc2cc(Nc3nc4c(-c5ccc(S(C)(=O)=O)cc5)nccn4n3)ccc2[nH]1 [C58, [8-(4-methanesulfonyl-phenyl)-[1,2,4]triazolo[1,5-a]pyrazin-2-yl]-(2-methyl-1H-benzoimidazol-5-yl)-amine]	0.3 to 3	0.3 to 3
Cc1nc2cc(Nc3nc4c(-c5ccc(CN6CCOCC6)c(F)c5)nccn4n3)ccc2[nH]1 [C59, [8-(3-fluoro-4-morpholin-4-ylmethyl-phenyl)-[1,2,4]triazolo[1,5-a]pyrazin-2-yl]-(2-methyl-1H-benzoimidazol-5-yl)-amine]	3 to 50	0.3 to 3
Cn1cc(-c2nccn3nc(Nc4ccc5c(c4)NC(=O)C5)nc23)cn1 [C60, 6-[8-(1-methyl-1H-pyrazol-4-yl)-[1,2,4]triazolo[1,5-a]pyrazin-2-ylamino]-1,3-dihydro-indol-2-one]	0.3 to 3	0.3 to 3
Cn1cc(-c2nccn3nc(Nc4ccc(C(C)(C)O)cc4)nc23)cn1 [C61, 2-{4-[8-(1-methyl-1H-pyrazol-4-yl)-[1,2,4]triazolo[1,5-a]pyrazin-2-ylamino]-phenyl}-propan-2-ol]	0.1 to 0.3	0.3 to 3
Cn1cc(-c2nccn3nc(Nc4ccc(C5(C#N)CC5)cc4)nc23)cn1 [C63, 1-{4-[8-(1-methyl-1H-pyrazol-4-yl)-[1,2,4]triazolo[1,5-a]pyrazin-2-ylamino]-phenyl}-cyclopropanecarbonitrile]	0.1 to 0.3	0.3 to 3
Cn1cc(-c2nccn3nc(Nc4ccc(C5(C(N)=O)CC5)cc4)nc23)cn1 [C64, 1-{4-[8-(1-methyl-1H-pyrazol-4-yl)-[1,2,4]triazolo[1,5-a]pyrazin-2-ylamino]-phenyl}-cyclopropanecarboxylic acid amide]	0.3 to 3	0.3 to 3
N#CC1(c2ccc(Nc3nc4c(-c5cn[nH]c5)nccn4n3)cc2)CC1 [C65, 1-{4-[8-(1H-pyrazol-4-yl)-[1,2,4]triazolo[1,5-a]pyrazin-2-ylamino]-phenyl}-cyclopropanecarbonitrile]	0.1 to 0.3	3 to 50
NC(=O)C1(c2ccc(Nc3nc4c(-c5cn[nH]c5)nccn4n3)cc2)CC1 [C66, 1-{4-[8-(1H-pyrazol-4-yl)-[1,2,4]triazolo[1,5-a]pyrazin-2-ylamino]-phenyl}-cyclopropanecarboxylic acid amide]	0.1 to 0.3	3 to 50
CC1(C)C(=O)Nc2cc(Nc3nc4c(-c5cn[nH]c5)nccn4n3)ccc21 [C67, 3,3-dimethyl-6-[8-(1H-pyrazol-4-yl)-[1,2,4]triazolo[1,5-a]pyrazin-2-ylamino]-1,3-dihydro-indol-2-one]	< 0.1	0.3 to 3
Cc1nn(C)cc1-c1nccn2nc(Nc3ccc4c(c3)NC(=O)C4(C)C)nc12 [C69, 6-[8-(1,3-dimethyl-1H-pyrazol-4-yl)-[1,2,4]triazolo[1,5-a]pyrazin-2-ylamino]-3,3-dimethyl-1,3-dihydro-indol-2-one]	0.1 to 0.3	0.3 to 3
CC1(C)C(=O)Nc2cc(Nc3nc4c(-c5ccc(S(C)(=O)=O)cc5)nccn4n3)ccc21 [C70, 6-[8-(4-Methanesulfonyl-phenyl)-[1,2,4]triazolo[1,5-a]pyrazin-2-ylamino]-3,3-dimethyl-1,3-dihydro-indol-2-one]	0.1 to 0.3	0.3 to 3
Cn1cc(-c2nccn3nc(Nc4ccc5c(c4)NC(=O)C5(C)O)nc23)cn1 (centres unmarked) [C71, 3-hydroxy-3-methyl-6-[8-(1-methyl-1H-pyrazol-4-yl)-[1,2,4]triazolo[1,5-a]pyrazin-2-ylamino]-1,3-dihydro-indol-2-one]	0.1 to 0.3	0.3 to 3
Cn1cc(-c2nccn3nc(Nc4ccc5c(C(C)(C)O)n[nH]c5c4)nc23)cn1 [C72, 2-{6-[8-(1-methyl-1H-pyrazol-4-yl)-[1,2,4]triazolo[1,5-a]pyrazin-2-ylamino]-1H-indazol-3-yl}-propan-2-ol]	< 0.1	0.3 to 3
CC1(C)C(=O)Nc2cc(Nc3nc4c(N5CC[C@@H](O)C5)nccn4n3)ccc21 [C73, 6-[8-((R)-3-hydroxy-pyrrolidin-1-yl)-[1,2,4]triazolo[1,5-a]pyrazin-2-ylamino]-3,3-dimethyl-1,3-dihydro-indol-2-one]	0.1 to 0.3	3 to 50
CC1(C)C(=O)Nc2cc(Nc3nc4c(N5CC(O)C5)nccn4n3)ccc21 [C74, 6-[8-(3-hydroxy-azetidin-1-yl)-[1,2,4]triazolo[1,5-a]pyrazin-2-ylamino]-3,3-dimethyl-1,3-dihydro-indol-2-one]	0.1 to 0.3	3 to 50
CN(c1nccn2nc(Nc3ccc4c(c3)NC(=O)C4(C)C)nc12)C1CCCCC1 [C78, 6-[8-(cyclohexyl-methyl-amino)-[1,2,4]triazolo[1,5-a]pyrazin-2-ylamino]-3,3-dimethyl-1,3-dihydro-indol-2-one]	0.3 to 3	3 to 50

Source: US9120804B2, “8-substituted 2-amino-[1,2,4] triazolo [1, 5-A] pyrazines as Syk tryrosine kinase inhibitors and GCN2 serin kinase inhibitors” (Merck Patent GmbH, priority 2012, dated 2015)
